# Marks after values point to notes of the source that are not given here.
# Columns and labels:
# [1] = tested on: human prostate LNCap xenograft; experiment: human prostate LnCap xenograft model in SCID mice (study MIS-43P-12); assay type: in vivo; design: Average / Delta avg: unit not given here; conditions: D 300 mg/kg bid, C 30 mg/kg qd; for anti-tumor response (in words): LnCap, single agent, AA 100 mg/kg bid; for T/C [%] / Delta avg / Average: po, C/D 30/300 qd/bid; for Delta avg: change of average tumor volume
# Experimental: (§1) Recently, in vivo anti-tumor efficacy of 1-(2-Chloro-pyridin-4-yl)-3-(4-methyl-pyridin-3-yl)-imidazolidin-2-one was evaluated alone and in combination with COMPOUND C or its hydrochloride salt (a pan PI3K inhibitor) in two human prostate cancer xenograft models, VCap and LnCap, established in SCID mice. The VCap tumors which, express PTEN and over-express wild type AR, were established in chemically-castrated mice. The LnCap tumors which, express mutant AR (T877A) and are PTEN null, were initially established in non-castrated animals which were chemically-castrated at the time of treatment.
# [2] = tested on: human prostate VCap xenograft; experiment: human prostate VCap xenograft model in SCID mice (studies MIS-32S-12 and MIS-59FVA-12); conditions: for ΔTumor volume (mm^3): mean ± SEM
# Experimental: as §1
# [3] = MIS-43P-12, day 0 of treatment, E 100 mg/kg bid
# [4] = MIS-43P-12, day 4 of treatment, E 100 mg/kg bid
# [5] = MIS-43P-12, day 11 of treatment
# [6] = MIS-43P-12, day 14 of treatment, E 100 mg/kg bid
# [7] = MIS-43P-12, day 18 of treatment, E 100 mg/kg bid
# [8] = MIS-43P-12, day 0, E 100 mg/kg bid
# [9] = MIS-43P-12, day 4, E 100 mg/kg bid
# [10] = MIS-43P-12, day 14, E 100 mg/kg bid
# [11] = MIS-43P-12, day 18, E 100 mg/kg bid
# [12] = tumor volume (FIG. 3a), MIS-43P-12, day 0 of treatment, E 100 mg/kg bid
# [13] = tumor volume, MIS-43P-12, day 4 of treatment, E 100 mg/kg bid
# [14] = tumor volume, MIS-43P-12, day 7 of treatment
# [15] = tumor volume, MIS-43P-12, day 11 of treatment
# [16] = tumor volume, MIS-43P-12, day 14 of treatment, E 100 mg/kg bid
# [17] = tumor volume, MIS-43P-12, day 18 of treatment, E 100 mg/kg bid
# [18] = MIS-32S-12, Day 14, p.o., D 300 mg/kg bid, AA 100 mg/kg bid, C 30 mg/kg qd, C + D 30 qd + 300 bid
# [19] = MIS-32S-12, Day 35, p.o., D 300 mg/kg bid, AA 100 mg/kg bid, C 30 mg/kg qd, C + D 30 qd + 300 bid
# [20] = MIS-32S-12, Day 35, p.o., D 300 mg/kg bid, AA 100 mg/kg bid, C 30 mg/kg qd, C + D 30 mg/kg qd + 300 mg/kg bid
# [21] = MIS-59FVA-12, Day 14, p.o., D 300 mg/kg bid, C 30 mg/kg qd, C + D 30 qd + 300 bid (so in the source)
# [22] = MIS-59FVA-12, Day 14, p.o., D 300 mg/kg bid, C 30 mg/kg qd (so in the source)
# [23] = MIS-59FVA-12, Day 23, p.o., D 300 mg/kg bid, C 30 mg/kg qd, C + D 30 qd + 300 bid (so in the source)
# [24] = MIS-59FVA-12, Day 23, p.o., D 300 mg/kg bid, C 30 mg/kg qd (so in the source)
Structure (SMILES),anti-tumor response (in words) [1],"T/C [%] [1, 3] [%]","T/C [%] [1, 4] [%]","T/C [%] ([1]; MIS-43P-12, day 7 of treatment)","T/C [%] [1, 5] [%]","T/C [%] [1, 6] [%]","T/C [%] [1, 7] [%]","Delta avg [1, 8]","Delta avg [1, 9]","Delta avg ([1]; MIS-43P-12, day 7)","Delta avg ([1]; MIS-43P-12, day 11)","Delta avg [1, 10]","Delta avg [1, 11]","Average [1, 12]","Average [1, 13]","Average [1, 14]","Average [1, 15]","Average [1, 16]","Average [1, 17]","ΔTumor volume (mm^3) [2, 18] [mm^3]",other results
"Nc1cc(C(F)(F)F)c(-c2cc(N3CCOCC3)nc(N3CCOCC3)n2)cn1 [Compound C, 5-(2,6-di-morpholin-4-yl-pyrimidin-4-yl)-4-trifluoromethyl-pyridin-2-ylamine]",marginal tumor growth delay,100,56,71,86,75,79,0,29,88,198,261,375,170,199,258,369,432,546,−18.9 ± 6.3,"Regression (printed in T/C column) ([2]; MIS-32S-12, Day 14, p.o., C 30 mg/kg qd, C + D 30 mg/kg qd + 300 mg/kg bid): 13.8%*; Survival (alive/total) [2, 18]: 7/7; ΔTumor volume (mm^3) [2, 19]: 23.3 ± 21.6 mm^3; T/C [%] [2, 20]: 5.0*^;$ %; Survival (alive/total) [2, 19]: 7/7; ΔTumor volume (mm^3) [2, 21]: 3.6 ± 7.6 mm^3; T/C [%] [2, 22]: 4.0%*; Survival (alive/total) [2, 21]: 7/7; ΔTumor volume (mm^3) [2, 23]: 25.6 ± 16.4 mm^3; T/C [%] [2, 24]: 12.4* %; Survival (alive/total) [2, 23]: 7/7; anti-tumor response (in words) ([2]; VCap, single agent 20 mg/kg qd): tumor growth delay; anti-tumor response (in words) ([2]; VCap, single agent 30 mg/kg qd): tumor regression"
"Cc1ccncc1N1CCN(c2ccnc(Cl)c2)C1=O [Compound D, 1-(2-Chloro-pyridin-4-yl)-3-(4-methyl-pyridin-3-yl)-imidazolidin-2-one]",marginal tumor growth delay,100,82,60,85,57,67,0,43,73,197,200,317,174,217,248,372,375,491,35.6 ± 10.5,"T/C [%] ([2]; MIS-32S-12, Day 14, p.o., D 300 mg/kg bid, AA 100 mg/kg bid, C 30 mg/kg qd, C + D 30 mg/kg qd + 300 mg/kg bid): 27.2*^$ %; ΔTumor volume (mm^3) [2, 19]: 303.9 ± 57.3 mm^3; T/C [%] [2, 20]: 65.2*^;$;# %; ΔTumor volume (mm^3) [2, 21]: 36.3 ± 17.0 mm^3; T/C [%] [2, 22]: 40.3* %; ΔTumor volume (mm^3) [2, 23]: 79.8 ± 20.1 mm^3; T/C [%] [2, 24]: 38.7*^;# %; anti-tumor response (in words) ([2]; two separate VCap experiments, single agent, D 300 mg/kg bid, AA 100 mg/kg bid): either slight tumor regression or tumor stasis initially, followed by tumor growth delay"

# From US20150157645A1, “COMBINATION OF A 17-ALPHA-HYDROXYLASE (C17,20-LYASE) INHIBITOR AND A SPECIFIC PI-3K INHIBITOR FOR TREATING A TUMOR DISEASE” (priority 2012, published 2015)
